Experimental data: PubChem BioAssay (NCI)
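Test compounds were applied to cells in 96-well plates for 48 hours at 5 doses. TGI: total growth inhibition.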

Tests used:
Assay in all cases: NCI-60 cell line screen, 48 h
RPMI-8226 leukemia = tested on: RPMI-8226 leukemia
HL-60(TB) leukemia = tested on: HL-60(TB) leukemia
RXF 393 renal = tested on: RXF 393 renal
KM12 colon = tested on: KM12 colon
NCI-H23 lung = tested on: NCI-H23 lung
SN12C renal = tested on: SN12C renal
DU-145 prostate = tested on: DU-145 prostate
HOP-92 NSCLC = tested on: HOP-92 NSCLC
MOLT-4 leukemia = tested on: MOLT-4 leukemia
BT-549 breast = tested on: BT-549 breast
M14 melanoma = tested on: M14 melanoma
HCT-116 colon = tested on: HCT-116 colon
NCI-H522 lung = tested on: NCI-H522 lung
MDA-MB-231 breast = tested on: MDA-MB-231 breast
PC-3 prostate = tested on: PC-3 prostate
SR leukemia = tested on: SR leukemia
MCF7 breast = tested on: MCF7 breast
EKVX NSCLC = tested on: EKVX NSCLC
ACHN renal = tested on: ACHN renal
HOP-62 NSCLC = tested on: HOP-62 NSCLC
SF-268 CNS = tested on: SF-268 CNS
UACC-257 melanoma = tested on: UACC-257 melanoma
TK-10 renal = tested on: TK-10 renal
U251 CNS = tested on: U251 CNS
HT29 colon = tested on: HT29 colon
SF-539 CNS = tested on: SF-539 CNS
SNB-19 CNS = tested on: SNB-19 CNS
MDA-MB-435 = tested on: MDA-MB-435
NCI-H226 lung = tested on: NCI-H226 lung
OVCAR-5 ovarian = tested on: OVCAR-5 ovarian
MDA-N = tested on: MDA-N
A549 NSCLC = tested on: A549 NSCLC
HS 578T breast = tested on: HS 578T breast
SF-295 CNS = tested on: SF-295 CNS
SK-MEL-2 melanoma = tested on: SK-MEL-2 melanoma
SK-OV-3 ovarian = tested on: SK-OV-3 ovarian
OVCAR-3 ovarian = tested on: OVCAR-3 ovarian
MALME-3M melanoma = tested on: MALME-3M melanoma
HCT-15 colon = tested on: HCT-15 colon
OVCAR-4 ovarian = tested on: OVCAR-4 ovarian
UO-31 renal = tested on: UO-31 renal
COLO 205 colon = tested on: COLO 205 colon
UACC-62 melanoma = tested on: UACC-62 melanoma
SW-620 colon = tested on: SW-620 colon
LOX IMVI melanoma = tested on: LOX IMVI melanoma
IGROV1 ovarian = tested on: IGROV1 ovarian
CAKI-1 renal = tested on: CAKI-1 renal
OVCAR-8 ovarian = tested on: OVCAR-8 ovarian
NCI/ADR-RES ovarian = tested on: NCI/ADR-RES ovarian
786-0 renal = tested on: 786-0 renal
T-47D breast = tested on: T-47D breast
CCRF-CEM leukemia = tested on: CCRF-CEM leukemia
NCI-H460 lung = tested on: NCI-H460 lung
K-562 leukemia = tested on: K-562 leukemia
SK-MEL-5 melanoma = tested on: SK-MEL-5 melanoma
SNB-75 CNS = tested on: SNB-75 CNS
A498 renal = tested on: A498 renal
SK-MEL-28 melanoma = tested on: SK-MEL-28 melanoma

CC(=O)N1N=C(c2cc(C)ccc2O)CC1c1cccc(Cl)c1 (stereo not given) showed a TGI (RPMI-8226 leukemia) of 26.5 µM, a TGI (HL-60(TB) leukemia) of 42.4 µM and a TGI (RXF 393 renal) of 34.2 µM. The TGI (KM12 colon) was > 100 µM, the TGI (NCI-H23 lung) was 68.1 µM and the TGI (SN12C renal) was 77 µM. The TGI (DU-145 prostate) was > 100 µM, the TGI (HOP-92 NSCLC) was 37 µM and the TGI (MOLT-4 leukemia) was 28 µM. For the same compound, the TGI (BT-549 breast) was > 100 µM, the TGI (M14 melanoma) was 84 µM and the TGI (HCT-116 colon) was > 100 µM. The TGI (NCI-H522 lung) was 14.3 µM, the TGI (MDA-MB-231 breast) was 82.4 µM and the TGI (PC-3 prostate) was 66.1 µM. The TGI (SR leukemia) was 9.42 µM, the TGI (MCF7 breast) was 34.6 µM and the TGI (EKVX NSCLC) was 91.8 µM. The TGI (ACHN renal) was 47.8 µM, the TGI (HOP-62 NSCLC) was > 100 µM and the TGI (SF-268 CNS) was 50.5 µM. It also gave a TGI (UACC-257 melanoma) of 41.6 µM, a TGI (TK-10 renal) of 68.7 µM and a TGI (U251 CNS) of 39.7 µM. The TGI (HT29 colon) was 40.2 µM, the TGI (SF-539 CNS) was 69.8 µM and the TGI (SNB-19 CNS) was 28.5 µM. For the same compound, the TGI (MDA-MB-435) was 4.05 µM, the TGI (NCI-H226 lung) was 58.8 µM and the TGI (OVCAR-5 ovarian) was > 100 µM. For the same compound, the TGI (MDA-N) was 5.44 µM, the TGI (A549 NSCLC) was 47.4 µM and the TGI (HS 578T breast) was 43 µM. For the same compound, the TGI (SF-295 CNS) was 65 µM, the TGI (SK-MEL-2 melanoma) was 28.8 µM and the TGI (SK-OV-3 ovarian) was 54.9 µM. For the same compound, the TGI (OVCAR-3 ovarian) was > 100 µM, the TGI (MALME-3M melanoma) was 62.1 µM and the TGI (HCT-15 colon) was 5.51 µM. The TGI (OVCAR-4 ovarian) was 54.8 µM, the TGI (UO-31 renal) was 50.3 µM and the TGI (COLO 205 colon) was 21.9 µM. The TGI (UACC-62 melanoma) was 35.2 µM, the TGI (SW-620 colon) was 93.5 µM and the TGI (LOX IMVI melanoma) was 39.6 µM. The TGI (IGROV1 ovarian) was 8.45 µM, the TGI (CAKI-1 renal) was > 100 µM and the TGI (OVCAR-8 ovarian) was > 100 µM. The TGI (NCI/ADR-RES ovarian) was 61.2 µM, the TGI (786-0 renal) was > 100 µM and the TGI (T-47D breast) was > 100 µM. For the same compound, the TGI (CCRF-CEM leukemia) was 57.8 µM, the TGI (NCI-H460 lung) was 61.9 µM and the TGI (K-562 leukemia) was > 100 µM. It also gave a TGI (SK-MEL-5 melanoma) of 27.8 µM.
In the case of S=C(NC/C(Br)=C/Br)Nc1cccc2ccccc12, the TGI (RPMI-8226 leukemia) is reported as 44.7 µM, the TGI (HL-60(TB) leukemia) is reported as 37.3 µM and the TGI (RXF 393 renal) is reported as > 100 µM. The TGI (NCI-H23 lung) was 74.5 µM, the TGI (SN12C renal) was 53.1 µM and the TGI (DU-145 prostate) was > 100 µM. For the same compound, the TGI (HOP-92 NSCLC) was 55.9 µM, the TGI (MOLT-4 leukemia) was 46.8 µM and the TGI (BT-549 breast) was 84.6 µM. The TGI (M14 melanoma) was 43.7 µM, the TGI (HCT-116 colon) was 61.9 µM and the TGI (NCI-H522 lung) was 74.6 µM. The TGI (MDA-MB-231 breast) was 51.3 µM, the TGI (PC-3 prostate) was 71.7 µM and the TGI (SR leukemia) was > 100 µM. The TGI (MCF7 breast) was 44.4 µM, the TGI (EKVX NSCLC) was > 100 µM and the TGI (ACHN renal) was 86.6 µM. For the same compound, the TGI (HOP-62 NSCLC) was 94 µM, the TGI (UACC-257 melanoma) was > 100 µM and the TGI (TK-10 renal) was > 100 µM. For the same compound, the TGI (U251 CNS) was > 100 µM, the TGI (HT29 colon) was > 100 µM and the TGI (SF-539 CNS) was 69.1 µM. The TGI (SNB-19 CNS) was > 100 µM, the TGI (MDA-MB-435) was > 100 µM and the TGI (NCI-H226 lung) was > 100 µM. The TGI (OVCAR-5 ovarian) was > 100 µM, the TGI (MDA-N) was 72.7 µM and the TGI (A549 NSCLC) was > 100 µM. For the same compound, the TGI (HS 578T breast) was > 100 µM, the TGI (SF-295 CNS) was > 100 µM and the TGI (SK-MEL-2 melanoma) was 48.5 µM. The TGI (SK-OV-3 ovarian) was > 100 µM, the TGI (OVCAR-3 ovarian) was 71.8 µM and the TGI (MALME-3M melanoma) was 78.8 µM. The TGI (SNB-75 CNS) was > 100 µM, the TGI (HCT-15 colon) was > 100 µM and the TGI (OVCAR-4 ovarian) was > 100 µM. The TGI (UO-31 renal) was 55.2 µM, the TGI (COLO 205 colon) was 32.7 µM and the TGI (A498 renal) was 90.4 µM. The TGI (UACC-62 melanoma) was 67.7 µM, the TGI (LOX IMVI melanoma) was > 100 µM and the TGI (IGROV1 ovarian) was > 100 µM. The TGI (CAKI-1 renal) was > 100 µM, the TGI (OVCAR-8 ovarian) was > 100 µM and the TGI (NCI/ADR-RES ovarian) was 50.9 µM. The TGI (786-0 renal) was > 100 µM, the TGI (T-47D breast) was > 100 µM and the TGI (CCRF-CEM leukemia) was 66.2 µM. It also gave a TGI (K-562 leukemia) of 31 µM and a TGI (SK-MEL-5 melanoma) of 34.3 µM.
For N#CC(C#N)N=Nc1ccc(-c2nc3ccccc3[nH]2)cc1, the TGI (RPMI-8226 leukemia) was > 100 µM, the TGI (HL-60(TB) leukemia) was 1.38 µM and the TGI (RXF 393 renal) was 34.8 µM. For the same compound, the TGI (KM12 colon) was > 100 µM, the TGI (NCI-H23 lung) was 66 µM and the TGI (SN12C renal) was > 100 µM. The TGI (SK-MEL-28 melanoma) was 52 µM, the TGI (DU-145 prostate) was 39.6 µM and the TGI (HOP-92 NSCLC) was 49.6 µM. The TGI (MOLT-4 leukemia) was > 100 µM, the TGI (BT-549 breast) was 36.3 µM and the TGI (M14 melanoma) was 52.3 µM. The TGI (HCT-116 colon) was 43.2 µM, the TGI (NCI-H522 lung) was 22.9 µM and the TGI (MDA-MB-231 breast) was 35.5 µM. The TGI (PC-3 prostate) was 50.4 µM, the TGI (SR leukemia) was > 100 µM and the TGI (MCF7 breast) was 37.6 µM. For the same compound, the TGI (EKVX NSCLC) was > 100 µM, the TGI (ACHN renal) was 29 µM and the TGI (HOP-62 NSCLC) was > 100 µM. The TGI (SF-268 CNS) was 66.4 µM, the TGI (UACC-257 melanoma) was 40.9 µM and the TGI (TK-10 renal) was 73.4 µM. For the same compound, the TGI (U251 CNS) was > 100 µM, the TGI (HT29 colon) was > 100 µM and the TGI (SF-539 CNS) was 35.5 µM. For the same compound, the TGI (SNB-19 CNS) was > 100 µM, the TGI (MDA-MB-435) was 40 µM and the TGI (NCI-H226 lung) was > 100 µM. The TGI (OVCAR-5 ovarian) was > 100 µM, the TGI (MDA-N) was 50.6 µM and the TGI (A549 NSCLC) was > 100 µM. For the same compound, the TGI (HS 578T breast) was > 100 µM, the TGI (SF-295 CNS) was > 100 µM and the TGI (SK-MEL-2 melanoma) was 64 µM. The TGI (SK-OV-3 ovarian) was > 100 µM, the TGI (OVCAR-3 ovarian) was 37.8 µM and the TGI (MALME-3M melanoma) was 28 µM. The TGI (SNB-75 CNS) was > 100 µM, the TGI (HCT-15 colon) was 58.7 µM and the TGI (OVCAR-4 ovarian) was 68.9 µM. For the same compound, the TGI (UO-31 renal) was 31.1 µM, the TGI (COLO 205 colon) was 21.8 µM and the TGI (A498 renal) was > 100 µM. It also gave a TGI (SW-620 colon) of 46.9 µM, a TGI (LOX IMVI melanoma) of 32.7 µM and a TGI (IGROV1 ovarian) of 37.9 µM. It also gave a TGI (CAKI-1 renal) of 82.6 µM, a TGI (OVCAR-8 ovarian) of 47.7 µM and a TGI (NCI/ADR-RES ovarian) of 43.2 µM. The TGI (786-0 renal) was 70.9 µM, the TGI (T-47D breast) was 55.7 µM and the TGI (CCRF-CEM leukemia) was 36.8 µM. For the same compound, the TGI (NCI-H460 lung) was > 100 µM, the TGI (K-562 leukemia) was > 100 µM and the TGI (SK-MEL-5 melanoma) was > 100 µM.
